Key:
Type in all cases: in vivo, mouse
[1] = system: PPAR-gamma mRNA; experiment: Example 12 HFD mice: adipose tissue PPAR-gamma mRNA analysis; details: adipose tissue of HFD mice, oral once daily for 10 weeks, chiisanogenin 50 mg/kg, Garcinia cambogia extract 200 mg/kg, combination 50 + 150 mg/kg, Met 50 mg/kg
Description: The test drug was dispersed in 0.5% Carboxymethyl cellulose (CMC) and administered in a volume of 0.2 ml, and the drug was administered orally by force into the stomach using a metal Zonde for oral administration. RNA was extracted from tissues using RNAsolB (Tel-Test) solution, and cDNA and real-time PCR analysis were performed using One-step SYBR Green PCR kit (AB science). From the prepared cDNA, a FAM probe of [NT] ID NO: 16) sequence was used to amplify PPAR-gamma mRNA, and a VIC probe of [NT] ID NO: 15) sequence was used to amplify GAPDH mRNA as an intra control. Real time quantitative PCR was performed using the Applied Biosystems 7500 Real-Time PCR system (Applied Biosystems, USA). Results obtained from various experiments are recorded as mean±standard error of mean (SEM), and significance verification is determined using the student's T-test analysis method. The data were analyzed using one-way ANOVA to determine a statistically significant variance between each group for each final point measured, and statistical significance between each group was determined using the nonparametric Mann-Whitney test and Dunnett's multiple comparison test (IBM SPSS statistics version 19.0 statistic software, Inc, IBM, USA).

[2] = Example 11 HFD mice: body fat reduction, white adipose tissue weight; details: oral once daily 10 weeks, 50 mg/kg
Description: (§1) After adapting 8-week-old male C57b1/6 J mice to the basic diet (AIN-76A diet) for 2 weeks, and consuming Diet Induced Obesity Diet Formulas (D12451) 60 kcal % HFD diet for 2 weeks from 10 weeks of age, and then the test drug was administered when the average body weight reached 28 g or more. The animal breeding room environment of the mouse was maintained in a constant temperature (25±2° C.), constant humidity (50±5%) and a 12-hour photoperiod (light on 07:00˜19:00) in which the light and shade were controlled in an SPF environment. […] The test drug was dispersed in 0.5% Carboxymethyl cellulose (CMC) and administered in a volume of 0.2 ml, and the drug was administered orally by force into the stomach using a metal Zonde for oral administration.
After removing retroperitoneal white adipose tissue and intestines white adipose tissue of each experimental animal, the weight of adipose tissue was calculated.
(§2) Results obtained from various experiments are recorded as mean±standard error of mean (SEM), and significance verification is determined using the student's T-test analysis method. The data were analyzed using one-way ANOVA to determine a statistically significant variance between each group for each final point measured, and statistical significance between each group was determined using the nonparametric Mann-Whitney test and Dunnett's multiple comparison test (IBM SPSS statistics version 19.0 statistic software, Inc, IBM, USA).

[3] = Example 11 HFD mice: serum test; details: oral once daily 10 weeks, 50 mg/kg
Description: as §1
Blood was collected by cardiac puncture to conduct a blood biochemical test after the end of the final experiment, and then plasma was separated by centrifugation at 3,000 rpm and 4° C. for 15 minutes within 30 minutes after blood collection, and then stored at −74° C. for blood chemistry and ELISA analysis. The contents of total cholesterol, high-density lipoprotein (HDL), low-density lipoprotein (LDL), triglyceride, FFA, glucose, and LDH, which are indicators of lipid content, were measured using an automated biochemical analyzer (Hitachi-720, Hitachi Medical, Japan). IGF-1 and Creatine were diluted in coating buffer, coated on microwells, and left overnight at 4° C. After washing each well with the buffer solution three times, 100 μl of serum (10-fold dilution) was dispensed, left at room temperature for 1 hour, and then washed twice with the buffer solution. Thereafter, 100 μl of the antibody avidin-HRP conjugate was treated, left at room temperature for 1 hour, and then washed again. 100 μl of the TMB substrate was dispensed, left in the dark for 30 minutes, treated with 50 μl of the stop solution, and absorbance was measured at a wavelength of 450 nm using an ELISA reader.
as §2

Structure (SMILES): CN(C)C(=N)N=C(N)N [Met, Metformin]
- PPAR-γ mRNA Inhibition Rate (%) [1]: 80%
- PPAR-γ mRNA, mean ± standard error ([1]; real-time PCR vs GAPDH): 1.235 ± 0.42
- Inhibition Rate (intestines WAT) [2]: 46%
- Inhibition Rate (retroperitoneal white adipose tissue) [2]: 12%
- Intestines WAT [2]: 0.55 ± 0.05 g
- Retroperitoneal white adipose tissue [2]: 0.89 ± 0.06 g
- Cholesterol [3]: 175.6 ± 9.03 mg/dL
- Creatin [3]: 0.564 ± 0.011 mg/dL
- Glucose [3]: 202.5 ± 7.98 mg/dL
- HDL [3]: 88.1 ± 2.99 mg/dL
- IGF-1 [3]: 1455.8 ± 138.07 pg/mL
- Inhibition Rate (Cholesterol) [3]: 40%
- Inhibition Rate (Creatin) [3]: 175%
- Inhibition Rate (Glucose) [3]: 11%
- Inhibition Rate (HDL) [3]: 7%
- Inhibition Rate (IGF-1) [3]: 89%
- Inhibition Rate (LDH) [3]: 122%
- Inhibition Rate (LDL) [3]: 71%
- Inhibition Rate (NEFA) [3]: 61%
- Inhibition Rate (Triglyceride) [3]: 65%
- LDH [3]: 592.0 ± 53.77 U/L
- LDL [3]: 12.3 ± 0.80 mg/dL
- NEFA [3]: 2.26 ± 0.10 mEq/L
- Triglyceride [3]: 118.6 ± 5.90 mg/dL

— patent US12390505B2, “Composition for preventing or treating obesity or diabetes, comprising acanthopanax senticosus extract and garcinia cambogia extract or compound isolated therefrom” (KOREA RESEARCH INSTITUTE OF BIOSCIENCE AND BIOTECHNOLOGY, priority 2020, dated 2025)
